pIC50: −log10 of the molar value. Calls of active or inactive are those of the source. The calls are words filed in the database; no cut-off is given here.
How the values were obtained:
MGC-803 [1] = assay: Induction of apoptosis in human MGC803 cells assessed as viable cells at 4 uM after 12 hrs by Annexin V-FITC/propidium iodide staining based flow cytometry (reference value: 83.4%); format: functional; details: MGC-803, 12 h, read-out: Activity
MGC-803 [2] = assay: Induction of apoptosis in human MGC803 cells assessed as necrotic cells at 4 uM after 24 hrs by Annexin V-FITC/propidium iodide staining based flow cytometry (reference value: 6.1%); format: functional
[3] = Cytotoxicity against human MGC803 cells assessed as reduction in cell viability after 72 hrs by MTT assay; format: functional, cell-based; details: MGC-803, 72 h
MGC-803 [4] = assay: Induction of apoptosis in human MGC803 cells assessed as necrotic cells at 12 uM after 24 hrs by Annexin V-FITC/propidium iodide staining based flow cytometry (reference value: 6.1%); format: functional
MGC-803 [5] = assay: Induction of apoptosis in human MGC803 cells assessed as early apoptotic cells at 4 uM after 24 hrs by Annexin V-FITC/propidium iodide staining based flow cytometry (reference value: 6%); format: functional
MGC-803 [6] = assay: Induction of apoptosis in human MGC803 cells assessed as viable cells at 8 uM after 24 hrs by Annexin V-FITC/propidium iodide staining based flow cytometry (reference value: 86.6%); format: functional; details: MGC-803, 24 h, read-out: Activity
MGC-803 [7] = assay: Induction of apoptosis in human MGC803 cells assessed as increase in expression of cleaved caspase-9 after 24 hrs by Western blot analysis; format: functional, cell-based
Mus musculus = assay: Toxicity in nude mouse xenografted with human MGC803 cells assessed as body weight loss at 7.5 to 30 mg/kg, po qd for 28 days; format: organism-based, MGC-803; details: in vivo, 672 h
MGC-803 [8] = assay: Induction of apoptosis in human MGC803 cells assessed as increase in expression of cleaved caspase-3 at 4 to 12 uM by Western blot analysis; format: functional, cell-based; details: TDE = time-dependent effect
MGC-803 [9] = assay: Induction of apoptosis in human MGC803 cells assessed as late apoptotic cells at 4 uM after 12 hrs by Annexin V-FITC/propidium iodide staining based flow cytometry (reference value: 1.2%); format: functional
MGC-803 [10] = assay: Induction of apoptosis in human MGC803 cells assessed as early apoptotic cells at 4 uM after 12 hrs by Annexin V-FITC/propidium iodide staining based flow cytometry (reference value: 6.3%); format: functional
MGC-803 [11] = assay: Induction of apoptosis in human MGC803 cells assessed as nuclear morphological changes at 4 to 12 uM after 12 hrs by Hoechst 33258 staining based fluorescence assay; format: functional, cell-based
MGC-803 [12] = assay: Induction of apoptosis in human MGC803 cells assessed as necrotic cells at 8 uM after 24 hrs by Annexin V-FITC/propidium iodide staining based flow cytometry (reference value: 6.1%); format: functional
MGC-803 [13] = assay: Induction of apoptosis in human MGC803 cells assessed as viable cells at 4 uM after 24 hrs by Annexin V-FITC/propidium iodide staining based flow cytometry (reference value: 86.6%); format: functional; details: MGC-803, 24 h, read-out: Activity
MGC-803 [14] = assay: Induction of apoptosis in human MGC803 cells by Annexin V-FITC/propidium iodide staining based flow cytometry; format: functional, cell-based
[15] = Cytotoxicity against human SMMC7721 cells assessed as reduction in cell viability after 72 hrs by MTT assay; format: functional, cell-based; details: SMMC-7721, 72 h
MGC-803 [16] = assay: Induction of apoptosis in human MGC803 cells assessed as early apoptotic cells at 8 uM after 24 hrs by Annexin V-FITC/propidium iodide staining based flow cytometry (reference value: 6%); format: functional
MGC-803 [17] = assay: Induction of apoptosis in human MGC803 cells assessed as morphological changes at 4 to 12 uM after 12 hrs by inverted microscopy; format: functional, cell-based
MGC-803 [18] = assay: Induction of apoptosis in human MGC803 cells assessed as decrease in expression of procaspase-3 at 4 to 12 uM after 24 hrs by Western blot analysis; format: functional, cell-based
MGC-803 [19] = assay: Induction of apoptosis in human MGC803 cells assessed as increase in expression of cleaved caspase-3 after 24 hrs by Western blot analysis; format: functional, cell-based
[20] = Antitumor activity against human MGC803 cells xenografted in nude mouse assessed as reduction in tumor weight 7.5 to 30 mg/kg, po qd for 28 days relative to control; format: functional, MGC-803; parameters: scale not given: the % may be the effect or the level left
MGC-803 [21] = assay: Induction of apoptosis in human MGC803 cells assessed as increase in expression of cleaved caspase-9 at 4 to 12 uM after 24 hrs by Western blot analysis; format: functional, cell-based
MGC-803 [22] = assay: Induction of apoptosis in human MGC803 cells assessed as viable cells at 8 uM after 12 hrs by Annexin V-FITC/propidium iodide staining based flow cytometry (reference value: 83.4%); format: functional; details: MGC-803, 12 h, read-out: Activity
MGC-803 [23] = assay: Induction of apoptosis in human MGC803 cells assessed as necrotic cells at 8 uM after 12 hrs by Annexin V-FITC/propidium iodide staining based flow cytometry (reference value: 9.2%); format: functional
MGC-803 [24] = assay: Induction of apoptosis in human MGC803 cells assessed as increase in expression of cleaved caspase-3 at 4 to 12 uM after 24 hrs by Western blot analysis; format: functional, cell-based
MGC-803 [25] = assay: Induction of apoptosis in human MGC803 cells assessed as necrotic cells at 12 uM after 12 hrs by Annexin V-FITC/propidium iodide staining based flow cytometry (reference value: 9.2%); format: functional
MGC-803 [26] = assay: Induction of apoptosis in human MGC803 cells assessed as early apoptotic cells at 8 uM after 12 hrs by Annexin V-FITC/propidium iodide staining based flow cytometry (reference value: 6.3%); format: functional
MGC-803 [27] = assay: Induction of apoptosis in human MGC803 cells assessed as late apoptotic cells at 12 uM after 24 hrs by Annexin V-FITC/propidium iodide staining based flow cytometry (reference value: 1.2%); format: functional
[28] = Cytotoxicity against human GES-1 cells assessed as cell viability at 20 uM after 72 hrs by MTT assay relative to control; format: cell-based, GES1; details: read-out: Activity
MGC-803 [29] = assay: Induction of apoptosis in human MGC803 cells assessed as viable cells at 12 uM after 24 hrs by Annexin V-FITC/propidium iodide staining based flow cytometry (reference value: 86.6%); format: functional; details: MGC-803, 24 h, read-out: Activity
MGC-803 [30] = assay: Induction of apoptosis in human MGC803 cells assessed as increase in expression of cleaved caspase-9 at 4 to 12 uM by Western blot analysis; format: functional, cell-based; details: TDE = time-dependent effect
MGC-803 [31] = assay: Induction of apoptosis in human MGC803 cells assessed as late apoptotic cells at 8 uM after 24 hrs by Annexin V-FITC/propidium iodide staining based flow cytometry (reference value: 1.2%); format: functional
MGC-803 [32] = assay: Induction of apoptosis in human MGC803 cells assessed as early apoptotic cells at 12 uM after 24 hrs by Annexin V-FITC/propidium iodide staining based flow cytometry (reference value: 6%); format: functional
MGC-803 [33] = assay: Induction of apoptosis in human MGC803 cells assessed as late apoptotic cells at 4 uM after 24 hrs by Annexin V-FITC/propidium iodide staining based flow cytometry (reference value: 1.2%); format: functional
MGC-803 [34] = assay: Induction of apoptosis in human MGC803 cells assessed as early apoptotic cells at 12 uM after 12 hrs by Annexin V-FITC/propidium iodide staining based flow cytometry (reference value: 6.3%); format: functional
MGC-803 [35] = assay: Induction of apoptosis in human MGC803 cells assessed as viable cells at 12 uM after 12 hrs by Annexin V-FITC/propidium iodide staining based flow cytometry (reference value: 83.4%); format: functional; details: MGC-803, 12 h, read-out: Activity
[36] = Cytotoxicity against human EC109 cells assessed as reduction in cell viability after 72 hrs by MTT assay; format: functional, cell-based; details: ECa-109, 72 h
MGC-803 [37] = assay: Induction of apoptosis in human MGC803 cells assessed as decrease in expression of procaspase-9 at 4 to 12 uM after 24 hrs by Western blot analysis; format: functional, cell-based
MGC-803 [38] = assay: Induction of apoptosis in human MGC803 cells assessed as increase in Bax protein expression after 24 hrs by Western blot analysis; format: functional, cell-based
MCF7 = assay: Cytotoxicity against human MCF7 cells assessed as reduction in cell viability after 72 hrs by MTT assay; format: functional, cell-based; details: MCF7, 72 h
MGC-803 [39] = assay: Induction of apoptosis in human MGC803 cells assessed as necrotic cells at 4 uM after 12 hrs by Annexin V-FITC/propidium iodide staining based flow cytometry (reference value: 9.2%); format: functional
MGC-803 [40] = assay: Induction of apoptosis in human MGC803 cells assessed as reduction in Bcl-2 protein expression after 24 hrs by Western blot analysis; format: functional, cell-based
MGC-803 [41] = assay: Induction of apoptosis in human MGC803 cells assessed as late apoptotic cells at 8 uM after 12 hrs by Annexin V-FITC/propidium iodide staining based flow cytometry (reference value: 1.2%); format: functional
MGC-803 [42] = assay: Induction of apoptosis in human MGC803 cells assessed as late apoptotic cells at 12 uM after 12 hrs by Annexin V-FITC/propidium iodide staining based flow cytometry (reference value: 1.2%); format: functional

O=C1C(=C/C=C/c2ccccc2)C(=O)N(c2ccc(Cl)cc2)N1c1ccc(Cl)cc1
viability at 4 µM (MGC-803 [1]): 77.7%
Activity (MGC-803 [2]): 5.8%
pIC50 [3]: 5.29
Activity (MGC-803 [4]): 4.4%
Activity (MGC-803 [5]): 20.4%
viability at 8 µM (MGC-803 [6]): 65%
Activity (MGC-803 [7]): Dose-dependent effect
Activity (Mus musculus): Non-toxic
Activity (MGC-803 [8]): tde
Activity (MGC-803 [9]): 1.8%
Activity (MGC-803 [10]): 12.8%
Activity (MGC-803 [11]): Active
Activity (MGC-803 [12]): 4.2%
viability at 4 µM (MGC-803 [13]): 72.1%
Activity (MGC-803 [14]): Dose-dependent effect
pIC50 [15]: 5.00
Activity (MGC-803 [16]): 28.8%
Activity (MGC-803 [17]): Active
Activity (MGC-803 [18]): Active
Activity (MGC-803 [19]): Dose-dependent effect
Activity [20]: 60.4%
Activity (MGC-803 [21]): Active
viability at 8 µM (MGC-803 [22]): 71.1%
Activity (MGC-803 [23]): 5.7%
Activity (MGC-803 [24]): Active
Activity (MGC-803 [25]): 3.9%
Activity (MGC-803 [26]): 21.5%
Activity (MGC-803 [27]): 3.7%
viability at 72 h, 20 µM [28]: 75%
viability at 12 µM (MGC-803 [29]): 39.2%
Activity (MGC-803 [30]): tde
Activity (MGC-803 [31]): 2%
Activity (MGC-803 [32]): 52.7%
Activity (MGC-803 [33]): 1.8%
Activity (MGC-803 [34]): 30.1%
viability at 12 µM (MGC-803 [35]): 64.1%
pIC50 [36]: 5.00
Activity (MGC-803 [37]): Active
Activity (MGC-803 [38]): Dose-dependent effect
pIC50 (MCF7): 5.03
Activity (MGC-803 [39]): 7.8%
Activity (MGC-803 [40]): Dose-dependent effect
Activity (MGC-803 [41]): 1.7%
Activity (MGC-803 [42]): 1.9%

Reference: ChEMBL document CHEMBL3751767, “Synthesis, in vitro and in vivo anticancer activities of novel 4-substituted 1,2-bis(4-chlorophenyl)-pyrazolidine-3,5-dione derivatives” (Medchemcomm, 2015)
